Where two headings read alike, the source gives them in different places.
Experiments:
[1] = target: AMPDA activity from porcine heart; assay: AMP Deaminase Assay (Example A); type: biochemical; conditions: for Ki: porcine heart AMPDA, 37° C., pH 6.5, competitive inhibition assumed; for Selectivity Ratio: selectivity ratio=[ADA Ki/Km]/[AMPDA Ki/Km], K = 1,000
Method: Catalysis was initiated by the addition of enzyme to the otherwise complete reaction mixture, and terminated after 5 minutes by injection into an HPLC system. Activities were determined from the amount of IMP formed during 5 minutes.

[2] = target: T1, adenosine deaminase (ADA) from calf intestinal mucosa (Bos taurus, UniProt P56658); assay: Adenosine Deaminase Assay (Example B); type: biochemical
T1 construct: adenosine deaminase (ADA) from calf intestinal mucosa; from tissue; host or cells: calf intestinal mucosa
T1 sequence (P56658 1-363): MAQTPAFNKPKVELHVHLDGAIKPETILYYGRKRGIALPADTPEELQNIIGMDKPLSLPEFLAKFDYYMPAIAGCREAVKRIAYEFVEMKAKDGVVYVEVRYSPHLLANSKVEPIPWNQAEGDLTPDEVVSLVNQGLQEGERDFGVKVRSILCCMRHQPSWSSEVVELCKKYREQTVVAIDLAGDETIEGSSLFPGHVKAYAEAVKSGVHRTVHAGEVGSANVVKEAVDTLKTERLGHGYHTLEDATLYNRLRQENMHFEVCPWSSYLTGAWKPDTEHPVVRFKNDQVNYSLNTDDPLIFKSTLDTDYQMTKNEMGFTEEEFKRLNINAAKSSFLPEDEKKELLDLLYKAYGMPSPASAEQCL
Method: Inhibition of adenosine deaminase (ADA) from calf intestinal mucosa was determined spectrophotometrically at pH 7.0 using one of the following two assays:
(1) Direct Assay: The reaction system mixture contained inhibitor, ~0.001 units ADA, and 40 mM potassium phosphate in 1 ml and at 37° C. The concentration of the substrate adenosine was varied from 20 to 100 μM.
The reaction was initiated by addition of adenosine and monitored continuously at 340 nm for 7 minutes as the decrease in absorbance reflects oxidation of NADH.

[3] = tested on: Neutrophil-myocyte adhesion; assay: Inhibition of Neutrophil-Myocyte Adhesion (Example C); type: cell-based; conditions: read-out: Neutrophil-Myocyte Adhesion Inhibition IC50
Method: Isolated neutrophils and myocytes were stimulated with the cytokine, TNF-α, and incubated in the presence of the test compound. Neutrophil-myocyte adhesion was determined as described by […], et al., J. Clin. Invest.

isolated rat hearts = assay: Functional recovery in isolated rat heart model of ischemia-reperfusion injury (Example D); conditions: low flow ischemia then 30 minutes reperfusion
Method: The ability of AMP deaminase inhibitors of the present invention to improve the recovery of post-ischemic function was examined in an isolated rat heart model of ischemia-reperfusion injury.
Isolated rat hearts were cannulated via the ascending aorta and attached to a perfusion apparatus according to the method of Langendorff. The hearts were perfused at a constant pressure of 100 cm of H2 O with a modified Krebs-Hanseleit buffer (pH 7.4) at 37° C. Left ventricular developed pressures (LVDP) were monitored continuously using a latex balloon attached to a pressure transducer. Coronary flows were measured gravimetrically by timed collection of pulmonary effluent. Following equilibration of the hearts for a period of 30 minutes, the hearts were subjected to […] of low flow ischemia, by reducing the perfusion pressure to 10 cm of H2 O, and then reperfused for 30 minutes by restoring the pressure to its original level (100 cm of H2 O). […] Compound 1 m provided recovery of LVDP to 83±2% compared to the placebo value of 65±2% when added to the perfusion to give a concentration of 0.3 μM.

Rat Focal Stroke Model = assay: Rat model of ischemic brain injury / focal stroke (Example F); type: in vivo
Text: Each rat is anesthetized with halothane and placed on a heating pad hooked up to a temperature regulator and connected to rectal probe. EEG electrodes are then inserted into the temporalis muscle bilaterally in between the eye and the ear. A midline incision is made to expose the left Common Carotid Artery (CCA). The internal Carotid Artery (ICA)is isolated and carefully separated from the adjacent vagus nerve. Following ligation of various vessels the ICA should be the only remaining extracranial branch of the CCA. Two 5-0 silk sutures are tied loosely around the external carotid artery (ECA)and microvascular clips placed on both the CCA (proximal to the bifurcation)and the ICA (in between the first and the second bifurcation). The ECA above the bifurcation is coagulated and the two sutures are then cut below the coagulation. A 25 mm length 4-0 nylon suture, its tip rounded by heating near a fine tipped cauterizer, is introduced into the ECA lumen. 20-22 mm of the suture is inserted into the ECA stump. The suture around the ECA is tightened to hold the occluding suture in place and EEC reading is checked to confirm occlusion by the appearance of a flat line. At this point the intraluminal suture has blocked the origin of the […] (MCA), occluding all sources of blood flow from the interior Carotid Artery (ICA), the […] (ACA), and the posterior cerebral artery (PCA). At 105 min later the suture is gently retracted under halothane anesthesia to allow blood flow back into the middle cerebral artery. The neck incision is closed and animals allowed to recover from anesthesia. At 24 hrs animals are evaluated for behavioral deficits, sacrificed, transcardial perfused, brains removed and TTC stained for visualization of infarcted region using a computer assisted system.
The application of compound 1d is shown in the time line diagram. Thirty minutes prior to induction of ischemia (SUTURE IN) Compound 1d in isotonic saline solution was infused for 15 min at a loading dose of 250 μg/kg/min (50 μl/min)followed by maintenance rate of 50 μg/kg/min for the remaining 12 hrs.

AMPDA = conditions: reported; kind of constant not stated; cited from earlier work
ADA = target: T2, ADA (Homo sapiens, UniProt P00813); conditions: reported; kind of constant not stated; cited from earlier work
T2 sequence (P00813 1-363): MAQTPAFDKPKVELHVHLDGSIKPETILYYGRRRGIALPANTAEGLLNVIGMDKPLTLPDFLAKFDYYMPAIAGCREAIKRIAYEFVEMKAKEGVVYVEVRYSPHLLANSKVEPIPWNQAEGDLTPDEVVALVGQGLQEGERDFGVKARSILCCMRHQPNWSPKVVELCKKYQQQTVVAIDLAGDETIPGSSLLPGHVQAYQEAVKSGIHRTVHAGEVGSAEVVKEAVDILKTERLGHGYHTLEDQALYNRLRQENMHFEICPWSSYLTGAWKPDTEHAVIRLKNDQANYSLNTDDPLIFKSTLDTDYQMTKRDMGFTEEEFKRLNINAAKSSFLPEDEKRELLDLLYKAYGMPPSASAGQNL

[4] = neutrophils and myocytes stimulated with TNF-α
[5] = calf intestinal mucosa ADA, pH 7.0, read-out: ADA Ki
[6] = Treated, Post reperfusion, mean ± sem

SMILES	Ki [1]	Selectivity Ratio [1]	IC50 [3, 4]	Ki [2, 5]	further results
Cc1ccc(-c2nn[nH]n2)cc1CCn1cnc2c1N=CNCC2O (stereo not shown) [compound 1n, 3-(2'-(6"-methyl-3"-(tetrazol-5'"-yl)phenyl)ethyl)coformycin aglycone]	1.6 µM	> 2.1K			Ki [2]: > 200 µM
CC(C)=CCC[C@H](C)CCn1cnc2c1N=CNCC2O (stereo partly drawn) [compound 1c, (3'S)-3-(3',7'-dimethyloct-6'-enyl)coformycin aglycone]	1.1 µM	29	5.1 ± 2.5 µM	1.9 µM	
O=C(O)c1cc(CCn2cnc3c2N=CNCC3O)c2ccccc2c1 (stereo not shown) [compound 1p, 3-(2'-(3"-carboxynaphthyl)ethyl)coformycin aglycone]	0.02 µM	> 850K		> 1000 µM	
CCCCCCCn1cnc2c1N=CNCC2O (stereo not shown) [compound 1a, 3-heptylcoformycin aglycone]	10 µM			0.35 µM	recovery of LVDP (isolated rat hearts; 3 μM in perfusion, placebo 69±1%): 83±3%; IC50 [3]: 12 ± 6 µM
CCCOc1ccc(CCCn2cnc3c2N=CNCC3O)cc1 (stereo not shown) [compound 1i, 3-(3'-(4"-propoxyphenyl)propyl)coformycin aglycone]	3.6 µM	0.03		0.006 µM	
OC1CNC=Nc2c1ncn2C1CCCCCC1 (stereo not shown) [compound 1d, 3-cycloheptylcoformycin aglycone]	8 µM	17	4.3 ± 1.3 µM	7.9 µM	Blood Pressure (Rat Focal Stroke Model; [6]): 115 ± 4 mm Hg; Temperature (Rat Focal Stroke Model; [6]): 38.6 ± 0.2 °C; Blood Pressure (Rat Focal Stroke Model; Treated, Pre, mean ± sem): 102 ± 5 mm Hg; Temperature (Rat Focal Stroke Model; Treated, T = 0, mean ± sem): 37.4 ± 0.2 °C; Blood Pressure (Rat Focal Stroke Model; Treated, T = 60, mean ± sem): 84 ± 9 mm Hg; Temperature (Rat Focal Stroke Model; Treated, T = 60, mean ± sem): 37.5 ± 0.2 °C; pCO2 (Rat Focal Stroke Model; Treated, mean ± sem): 37.8 ± 1.3; pH (Rat Focal Stroke Model; Treated, mean ± sem): 7.379 ± 0.015; pO2 (Rat Focal Stroke Model; Treated, mean ± sem): 142.3 ± 10.0; effect on physiological parameters such as blood pressure, heart rate, body temperature and blood gases (Rat Focal Stroke Model; continuous infusion): no apparent effect; reduction of infarct volume (Rat Focal Stroke Model; infusion 250 μg/kg/min for 15 min then 50 μg/kg/min, vs control): 52%; infarct volume (Rat Focal Stroke Model; treated, n=8, control 139±31 (n=7), p=0.05): 71±28 mm^3
O=C(O)c1cc(CCn2cnc3c2N=CNCC3O)cs1 (stereo not shown) [compound 1o, 3-(2'-(2"-carboxythiophen-4"-yl)ethyl)coformycin aglycone]	2.2 µM	590	8 ± 2 µM	> 6 µM	
O=C(O)C(CCCCn1cnc2c1NC=NCC2O)Cc1ccccc1 (stereo not shown) [compound 1j, 3-(5'-carboxy-6'-phenylhexyl)coformycin aglycone]			0.045 ± 0.01 µM	> 200 µM	
Cc1ccc(C(=O)O)cc1CCn1cnc2c1N=CNCC2O (stereo not shown) [compound 1m, 3-(2'-(3"-carboxy-6"-methylphenyl)ethyl)coformycin aglycone]	0.097 µM	> 175K		> 1000 µM	recovery of LVDP (isolated rat hearts; 0.3 μM in perfusion, placebo 65±2%): 83±2%; IC50 [3]: 0.03 ± 0.01 µM
CC1(C)[C@H]2CC[C@H](Cn3cnc4c3N=CNCC4O)[C@@H]1C2 (stereo partly drawn) [compound 1e, (l'S,2'S,5'S)-3-(6',6'-dimethyl[3,1,1]-bicyclohept-2'-methyl)coformycin aglycone]	1.7 µM	> 1.6K	24 ± 3 µM	> 160 µM	
OC[C@H]1O[C@@H](n2cnc3c2NC=NC[C@H]3O)C[C@@H]1O [deoxycoformycin]					inhibition of AMPDA (AMPDA): 1000 nM
[N-]=[N+]=NC1CNC=Nc2c1ncn2CCCc1ccccc1 (stereo not shown) [compound 1h]	6.6 µM	0.16		0.063 µM	
CC1=Nc2c(ncn2CCCc2ccccc2C)C(O)CN1 (stereo not shown) [compound 1g, 5-methyl-3-(3'-(2"-methylphenyl)propyl)coformycin aglycone]	11 µM	> 150		> 100 µM	
Cc1ccccc1CCCn1cnc2c1N=CNCC2O (stereo not shown) [compound 1f, 3-(3'-(2"-methylphenyl)propyl)coformycin aglycone]	2.1 µM	0.34	1.4 ± 0.45 µM	0.042 µM	
O=C(O)C(CCCCn1cnc2c1N=CNCC2O)C(=O)OCc1ccccc1 (stereo not shown) [compound 1k, 3-(5'-carboxy-5'-carbobenzyloxypentyl)coformycin aglycone]	0.36 µM	> 47K		> 1000 µM	
OC[C@H]1O[C@@H](n2cnc3c2N=CNC[C@H]3O)[C@H](O)[C@@H]1O [Coformycin, coformycin]					inhibition of ADA (ADA): < 0.2 nM; inhibition of AMPDA (AMPDA): 1000 nM
CC(CCCCn1cnc2c1N=CNCC2O)(C(=O)O)C(=O)NCc1ccccc1 (stereo not shown) [compound 1l, 3-(5'-carbox-N-benzylamido-5'-carboxyhexyl)coformycin aglycone]	2.7 µM	> 6.3K		> 1000 µM	
CCCCCCCn1cnc2c1N=CNCC2(C)O (stereo not shown) [compound 1b, 3-heptyl-8-methylcoformycin aglycone]	36 µM	6		12 µM	

From US5731432A, “Inhibitors of adenosine monophosphate deaminase” (priority 1994, dated 1998)
